Laboratory results reported in patent publication US20220298222A1, “COMBINATION THERAPY OF A T CELL THERAPY AND AN ENHANCER OF ZESTE HOMOLOG 2 (EZH2) INHIBITOR AND RELATED METHODS” (Juno Therapeutics, Inc., priority 2019, published 2022).

Columns and labels:
[1] = tested on: ABC cell lines (SU-DHL-2 and OCI-LY3); experiment: Cell viability by ATP luminescence-based assay, ABC cell lines; conditions: 6 days, 1.0 μM EPZ-6438, 0.1 μM or 1.0 μM CPI-1205, wild type EZH2
Description: (§1) Cell viability was determined based on the amount of ATP quantified by a luminescence-based assay.

[2] = tested on: GCB cell lines (WSU-DLCL2, Farage, KARPAS-422, and SU-DHL-5); experiment: Cell viability by ATP luminescence-based assay, GCB cell lines; conditions: 6 days; 1.0 μM EPZ-6438, 0.1 μM or 1.0 μM CPI-1205; mutant and wild type GCB cell lines
Description: as §1

[3] = tested on: H3K27Me3 in GCB (WSU-DLCL2, Farage, KARPAS-422, SU-DHL-5) and ABC (SU-DHL-2, OCI-LY3) DLBCL cell lines; experiment: H3K27Me3 levels by Western blot in GCB and ABC DLBCL cell lines, two EZH2 inhibitors; format: cell-based; conditions: 6 days; 0.1 or 1.0 μM; all GCB and ABC cell lines tested
[4] = cited from earlier work

SMILES | cell viability (ATP) [1] | cell viability (ATP) [2] | H3K27Me3 levels (Western blot) [3] | recommended phase II dose ([4]; twice daily (BID) or three times daily (TID) for 28-day cycles, subjects with R/R B-cell non-Hodgkin lymphoma or an advanced solid tumor) [mg] | maximum tolerated dose (MTD) ([4]; twice daily, human subjects, R/R B-cell lymphoma, 28-day cycles) [milligrams]
COc1cc(C)[nH]c(=O)c1CNC(=O)c1c(C)n([C@H](C)C2CCN(CC(F)(F)F)CC2)c2ccccc12 [CPI-1205] | resistant | decreased cell viability | decreased H2K27Me3 levels |  | 
CCN(c1cc(-c2ccc(CN3CCOCC3)cc2)cc(C(=O)NCc2c(C)cc(C)[nH]c2=O)c1C)C1CCOCC1 [tazemetostat] |  |  |  | 800 | 800
